Assay results taken from paper PMC6383986, “Fragment-Based Covalent Ligand Screening Enables Rapid Discovery of Inhibitors for the RBR E3 Ubiquitin Ligase HOIP” (Journal of the American Chemical Society, 2019).

Legend:
[1] = tested on: untransfected HEK293T cells; assay: CellTiter-Glo Luminescent cell viability assay, untransfected cells; type: cell-based; conditions: 17 h
Experimental: Separately, untransfected HEK293T cells were incubated with compounds (1), (11a) and (17) for 17 h, and the cell viability determined using the CellTiter-Glo® Luminescent Cell Viability Assay as described above. Average data from three independent experiments each done in triplicate were plotted as percentage cell viability normalized to DMSO control with GraFit (v.7) against different compound concentrations and fitted using the IC50-4 parameter logistic (Supplementary […]
Supplementary Figure S14. A-D) Uncropped concentration-response graphs (A and D from Figure 6D) and Western blots from the NF-κB reporter and cell viability assays. HEK293T cells transfected with His6-tagged HOIP, HOIL-1L and SHARPIN (H/H/S) were treated with compounds (11a) and (17) for 17 h and the relative NF-κB activity and cell viability was plotted against compound concentration. E) Cell viability of untransfected HEK293T cells treated with compound (1), (11a) and (17) for 17 h. The observed cell toxicity for compound (1) was in line that previously […]
(1 picture or pasted object on this page, not shown here)

[2] = tested on: E1, UbcH5c, UbcH7, HOIL-1L, RNF144A, HHARI, TRIAD3A RBR domains, NEDD4L, E6AP, OTULIN, CYLD-1; assay: LC-MS-based enzyme counter screen; type: binding; conditions: 2-fold excess, positive control
Experimental: 0.1% formic acid in water. The samples were analyzed on a Q Exactive MS (Thermo Fisher) coupled to an Easy-nLC chromatographic system (Thermo Fisher) with a nano ESI source (Thermo Fisher). Each sample (2 µL) was injected and trapped on a C18 Acclaim pepMap 100 enrichment column (75 µm id × 2 cm, 3 µm nanoviper, Thermo Fisher). The samples were transferred to a C18 Acclaim PepMap RSLC analytical column (75 µm id × 15 cm, 2 µm, Thermo Fisher) at 300 nL/min. Mobile phase A (0.1% Formic acid in water, v/v); mobile phase B (0.1% […]
min (70-95% B), 56-61 min (95% B). The nanospray ionisation source was operated in the positive mode with spray voltage set at 2 kV, and heated capillary at 250 °C. The Q Exactive was operated in the data dependent mode and the top 15 most intense ions were subjected to HCD fragmentation with normalised collision energy set at 26%. The MS1 scans were performed at a resolution of 70 000 from 400-1600 m/z, automatic gain control (AGC) value 3 e6, maximum injection time 100 ms. […]
Compounds (1) and (5) were screened against E1, the E2s UbcH5c and UbcH7, the RBR domains of the E3 ligases HOIP, HOIL-1L, RNF144A, HHARI and TRIAD3A, the HECT E3 ligases NEDD4L and E6AP, and the DUBs OTULIN and CYLD-1. […] The samples were analyzed after 0.5 and 24 h incubation. […]

SMILES: Cc1ccc(S(=O)(=O)/C=C/C#N)cc1 [Compound 1, BAY 11–7082, reference compound]
- cell viability [1]: cell toxicity
- labeling of counter screen proteins [2]: rapid and extensive labeling for most proteins
